{"source": "patent US20260183411A1", "about": "“TARGETING SORTILIN” (priority 2024, published 2026)", "molecules": {"B1": {"name": "SORT1 peptide 2 (w/conjugation handles), unconjugated (peptide)", "peptide": "APRWDAPLRDPALRQ[Tle][Cba]", "modifications": "also: conjugation handles, not given here", "notes": "also called Arb-SAR-Q15"}}, "key": {"[1]": {"experiment": "Murine serum stability assay", "format": "in vitro ADME, mouse", "conditions": "mouse, serum; linear peptides, Table 11; read-out: Murine serum stability assay, T1/2", "description": "Serum was drawn from male CD-1 mice by Pharmidex. Lyophilized peptides were solubilized in DMSO and then further diluted into male mouse (CD-1) serum at 37° C. in duplicates. The reaction was incubated at 37° C. and samples extracted at 6 time points: 0, 0.16, 0.5, 1, 3, and 6 hrs. Acetonitrile (ACN) with an internal standard (tolbutamide) was added to stop the incubation. Samples were centrifuged, and the supernatant was analyzed by HPLC-MS/MS for the parent compound."}, "[2]": {"experiment": "Dynamic light scattering (solubility/aggregation)", "format": "physicochemical", "conditions": "working concentrations (250 nM, PBS, pH 7.4)", "description": "Samples were spun down on a bench top centrifuge, 15 minutes, 15,000 rpm, room temperature, to pellet any aggregated peptide/dust before taking a measurement. Visual inspection of the tubes was used to identify if any large pellets were formed, which is indicative of large aggregates. […] The plate was then transferred and read on the DLS instrument (Wyatt Technology DynaPro Plate Reader III) at 25° C."}, "[3]": {"system": "MDA-MB-231 xenograft", "experiment": "MDA-MB-231 murine xenograft efficacy model", "format": "in vivo, mouse", "description": "Murine xenograft experiments were conducted at WuXi AppTec and/or Charles River Laboratories and the care and use of animals was conducted in accordance with the regulations of the Association for Assessment and Accreditation of Laboratory Animal Care (AAALAC). MDA-MB-231 tumor cells (ATCC, Manassas, VA, cat #HTB-26) were grown and maintained in L15 medium supplemented with 10% heat inactivated fetal bovine serum, 1% Antibiotic-Antimycotic, and L-glutamine (2 mM) at 37° C. in an atmosphere in 5% CO2, 95% air. BALB/c Nude, female, 6-8 weeks, weighing approximately 18-22 g were purchased from Vital River Laboratory Animal Technology Co., LTD. Mice were inoculated subcutaneously at the right flank with MDA-MB-231 tumor cells (e.g., triple negative breast cancer cells) (10×10^6) in 0.2 mL of PBS with Matrigel (1:1) for tumor development. Animals were randomized and treatment was started when the average tumor volume reached approximately 150-200 mm^3 for the efficacy study. Dosing volume was adjusted based on body weight and was administered at 10 mL/Kg. […] Free MMAE payload was also tested, and similarly dissolved in 25 mM Histidine 10% sucrose pH 7 and one or more of the following doses, 0.6, 0.06 mg/kg, were administered to the mice i.v. at a QW×4 schedule. Tumor sizes were measured twice weekly in two dimensions using a caliper, and the volume in mm^3 calculated using the formula: V=0.5 a×b^2, where a and b are the long and short diameters of the tumor, respectively. TGI was calculated for each group using the formula: TGI (%)=[1−(Ti−T0)/(Vi−V0)]×100; where Ti is the average tumor volume of a treatment group on a given day, TO is the average tumor volume of the treatment group on the first day of treatment, Vi is the average tumor volume of the vehicle control group on the same day with Ti, and V0 is the average tumor volume of the vehicle group on the first day of treatment.\nTo characterize the effects of the MMAE payload alone, we included free MMAE at molar equivalency to PDCs, and tested at 0.6 and 0.06 mg/kg, as separate arms.\nTo characterize the effects of the MMAE payload alone, we included free MMAE at molar equivalency to PDCs, and tested at 0.6 mg/kg."}, "[4]": {"experiment": "Murine hematotoxicity assay", "format": "in vivo, mouse", "conditions": "3 mg/kg i.v. QW×4, BALB/c mice", "description": "(§1) Murine hematotoxicity experiments were conducted at Charles River Laboratories and the care and use of animals was conducted in accordance with the regulations of the Association for Assessment and Accreditation of Laboratory Animal Care (AAALAC). Wild type BALB/c, female, 7-8 weeks, weighing approximately 18-22 g were randomized and dosed intravenously with control or test articles at a QW×4 schedule. Dosing volume was adjusted based on body weight and was administered at 10 mL/Kg. PDCs were dissolved in 25 mM Histidine 10% sucrose pH 7 and 3 mg/kg was administered. Free MMAE payload was also tested, and similarly dissolved in 25 mM Histidine 10% sucrose pH 7 and administered to the mice at a dose of […] by i.v. injection at a QW×4 schedule. 3 days following each dose, 150 μL of whole blood was collected via submandibular method and placed in K2 EDTA tubes stored on ice. Blood neutrophil counts were performed on the day of collection by IDEXX labs. Body weights were recorded twice a week until study endpoint.\nas §1, with “As outlined in the material” for “Murine hematotoxicity experiments were conducted at Charles River Laboratories”, “methods” for “the care and use”, “Example 1, wild” for “animals was conducted in accordance with the regulations of the Association for Assessment and Accreditation of Laboratory Animal Care (AAALAC). Wild”, “PDCs were dissolved in 25 mM Histidine 10% sucrose pH 7 and 3 mg/kg was administered.” left out"}, "[5]": {"molecular_target": "T1, rat SORT1 (76-752)-His (rat, UniProt O54861 76-752)", "T1 construct": "range 76-752; Amine-coupled to CM5 chip for SPR", "T1 sequence (looked up)": "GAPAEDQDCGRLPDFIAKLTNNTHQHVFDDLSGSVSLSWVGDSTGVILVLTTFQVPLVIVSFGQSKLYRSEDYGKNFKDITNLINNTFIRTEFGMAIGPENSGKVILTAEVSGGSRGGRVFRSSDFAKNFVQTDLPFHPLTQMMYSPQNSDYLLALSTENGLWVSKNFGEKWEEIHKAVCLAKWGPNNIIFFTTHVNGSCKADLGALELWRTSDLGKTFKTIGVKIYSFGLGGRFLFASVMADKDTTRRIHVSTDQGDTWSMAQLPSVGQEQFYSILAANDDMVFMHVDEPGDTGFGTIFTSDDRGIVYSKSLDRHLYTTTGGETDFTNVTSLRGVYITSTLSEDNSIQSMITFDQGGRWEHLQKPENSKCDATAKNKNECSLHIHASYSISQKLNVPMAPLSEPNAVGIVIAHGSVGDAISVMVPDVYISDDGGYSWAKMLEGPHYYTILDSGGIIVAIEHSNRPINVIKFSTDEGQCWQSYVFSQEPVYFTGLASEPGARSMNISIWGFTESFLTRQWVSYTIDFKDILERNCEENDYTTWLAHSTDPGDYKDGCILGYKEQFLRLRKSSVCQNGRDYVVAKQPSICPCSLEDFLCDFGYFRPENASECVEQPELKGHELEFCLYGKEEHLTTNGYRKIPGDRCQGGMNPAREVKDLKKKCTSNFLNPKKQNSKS", "experiment": "SPR (Biacore 8K), SORT1 on CM5 chip, unconjugated peptide with conjugation handles as analyte, 1:1 model", "description": "(§2) SPR analysis was performed on Series S CM5 chips (Cytiva) using a Biacore 8K instrument (Cytiva). Sensorgrams were double-referenced by subtracting the response on both a reference flow cell and a blank sample. Human SORT1 (78-755)-His (Acrobiosystems), human SORT1 (78-755)-His(GenScript), mouse SORT1 (76-753)-His (R&D Systems), rat SORT1 (76-752)-His (GenScript), and cyno SORT1 (76-753)-His (GenScript) were diluted to 20-60 μg/mL in 10 mM sodium acetate pH 4.5 buffer and immobilized onto Series S CM5 chips using amine coupling at a flow rate of 10 μL/min for 45-100 s.\n(§3) Ten start-up cycles and a blank cycle preceded each analysis run. The runs were performed by sequential injections of analyte (0-20 nM, 3-fold serial dilutions) with a 90 s association and 900 s dissociation at a flow rate of 30 μL/min, followed by two regeneration cycles with 2 M MgCl2 for 90 s at a flow rate of 10 μL/min. […] Five start-up cycles and a blank cycle preceded each analysis run. The runs were performed by sequential injections of analyte (0-25 nM) with a 150 seconds (s) association and 300 s dissociation at a flow rate of 30 μL/min, followed by a regeneration with 2 M MgCl₂ for 200 s at a flow rate of 10 μL/min. The kinetic rate constants (kₐ and kd) and the equilibrium binding constant (Kd) were calculated using a 1:1 kinetic binding model on the Biacore Insight Evaluation Software (Cytiva).\n(§4) SPR analysis was performed on Series S CM5 chips (Cytiva) using a Biacore 8K instrument (Cytiva). Sensorgrams were double-referenced by subtracting the response on both a reference flow cell and a blank sample. The SPR analysis was conducted using four different SORT1 species: Human SORT1, Mouse SORT1, Rat SORT1, and Cyno SORT1. The samples were prepared according to the general procedure described above herein. The kinetic rate constants (ka and […]) and the equilibrium binding constant (Kd) were calculated using a 1:1 kinetic binding model on the Biacore Insight Evaluation Software (Cytiva)."}, "[6]": {"molecular_target": "T2, cyno SORT1 (76-753)-His (cyno, UniProt A0A2K5VHG2 74-751)", "T2 construct": "range 76-753; Amine-coupled to CM5 chip for SPR", "T2 sequence": "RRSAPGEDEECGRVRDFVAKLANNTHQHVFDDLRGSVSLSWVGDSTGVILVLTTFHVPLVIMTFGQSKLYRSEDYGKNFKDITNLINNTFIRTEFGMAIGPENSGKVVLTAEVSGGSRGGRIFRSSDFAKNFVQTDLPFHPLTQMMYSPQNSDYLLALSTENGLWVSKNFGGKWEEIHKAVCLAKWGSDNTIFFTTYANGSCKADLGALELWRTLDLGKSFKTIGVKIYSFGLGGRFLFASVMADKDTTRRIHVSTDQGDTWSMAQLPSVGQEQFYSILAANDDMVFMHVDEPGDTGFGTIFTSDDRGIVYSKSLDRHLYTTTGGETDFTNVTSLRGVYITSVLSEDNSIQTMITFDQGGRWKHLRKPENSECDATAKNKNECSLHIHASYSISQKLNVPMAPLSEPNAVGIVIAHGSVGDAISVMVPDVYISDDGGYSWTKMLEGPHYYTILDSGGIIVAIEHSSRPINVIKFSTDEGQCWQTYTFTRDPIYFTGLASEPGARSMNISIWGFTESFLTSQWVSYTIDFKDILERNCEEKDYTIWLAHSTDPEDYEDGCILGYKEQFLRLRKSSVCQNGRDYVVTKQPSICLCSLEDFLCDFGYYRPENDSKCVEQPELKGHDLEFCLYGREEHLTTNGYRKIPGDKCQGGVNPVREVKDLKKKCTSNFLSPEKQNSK", "experiment": "SPR (Biacore 8K), SORT1 on CM5 chip, unconjugated peptide with conjugation handles as analyte, 1:1 model", "description": "as §2, §3, §4"}}, "note": "Where no end group is shown, it is not given here. [ ]: non-standard residue; d: D form. Cba = N[C@@H](CC1CCC1)C(=O)O; Tle = CC(C)(C)[C@H](N)C(=O)O", "data": [{"molecule": "CC(C)C[C@H](NC(=O)[C@H](CC(C)C)NC(=O)[C@H](CCC(N)=O)NC(=O)[C@H](CCCNC(=N)N)NC(=O)[C@H](CC(C)C)NC(=O)[C@H](C)NC(=O)[C@@H]1CCCN1C(=O)[C@H](CC(=O)O)NC(=O)[C@H](CCCNC(=N)N)NC(=O)[C@H](CC(C)C)NC(=O)[C@@H]1CCCN1C(=O)[C@H](C)NC(=O)[C@H](CC(=O)O)NC(=O)[C@H](Cc1c[nH]c2ccccc12)NC(=O)[C@H](CCCNC(=N)N)NC(=O)[C@@H]1CCCN1C(=O)[C@H](C)N)C(=O)O", "note": "[PRGN_WT]", "values": [{"measurement": "half-life", "setting": "[1]", "value": 3.16, "unit": "min"}, {"measurement": "solubility (DLS)", "setting": "[2]", "value": "good solubility"}]}, {"molecule": "CC(C)C[C@H](NC(=O)[C@H](CCCNC(=N)N)NC(=O)[C@H](CC(C)C)NC(=O)[C@H](C)NC(=O)[C@H](CC(C)C)NC(=O)[C@H](CCCNC(=N)N)NC(=O)[C@H](CCC(N)=O)NC(=O)[C@H](CC(C)C)NC(=O)[C@H](C)NC(=O)[C@@H]1CCCN1C(=O)[C@H](Cc1c[nH]c2ccccc12)NC(=O)[C@@H]1CCCN1C(=O)[C@H](C)NC(=O)[C@H](CCCNC(=N)N)NC(=O)[C@@H]1CCCN1C(=O)[C@H](CC(=O)O)NC(=O)[C@@H](N)CC(=O)O)C(=O)O", "note": "[PRGN_RL]", "values": [{"measurement": "half-life", "setting": "[1]", "value": 27.7, "unit": "min"}, {"measurement": "solubility (DLS)", "setting": "[2]", "value": "good solubility"}]}, {"molecule": "CC[C@H](C)[C@@H]([C@@H](CC(=O)N1CCC[C@H]1[C@H](OC)[C@@H](C)C(=O)N[C@H](C)[C@@H](O)c1ccccc1)OC)N(C)C(=O)[C@@H](NC(=O)[C@H](C(C)C)N(C)C(=O)OCc1ccc(NC(=O)[C@H](CCCNC(N)=O)NC(=O)[C@@H](NC(=O)CCCC(=O)NCCC(=O)N(C)CC(=O)N(C)CC(=O)N(C)CC(=O)N(C)CC(=O)N[C@@H](C)C(=O)N2CCC[C@H]2C(=O)N[C@@H](CCCNC(=N)N)C(=O)N[C@@H](Cc2c[nH]c3ccccc23)C(=O)N[C@@H](CC(=O)O)C(=O)N[C@@H](C)C(=O)N2CCC[C@H]2C(=O)N[C@@H](CC(C)C)C(=O)N[C@@H](CCCNC(=N)N)C(=O)N[C@@H](CC(=O)O)C(=O)N2CCC[C@H]2C(=O)N[C@@H](C)C(=O)N[C@@H](CC(C)C)C(=O)N[C@@H](CCCNC(=N)N)C(=O)N[C@@H](CCC(N)=O)C(=O)N[C@H](C(=O)N[C@@H](CC2CCC2)C(=O)O)C(C)(C)C)C(C)C)cc1)C(C)C", "note": "[Arb-SAR-Q15-PDC]", "values": [{"measurement": "tumor growth inhibited relative to vehicle", "setting": "[3]; 3 mg/kg i.v. QW×4, day 22", "value": 98, "unit": "%"}, {"measurement": "body weight loss (Example 8)", "setting": "[3]; PDCs 3 mg/kg, free MMAE at molar equivalency (0.6 mg/kg)", "value": "body weight loss tracked each other"}, {"measurement": "blood neutrophil counts compared to vehicle or MMAE treatment", "setting": "[4]", "value": "reduced neutrophil counts"}]}, {"molecule": "B1", "values": [{"measurement": "Kd", "setting": "[5]", "value": 0.757, "unit": "nM"}, {"measurement": "Kd", "setting": "[6]", "value": 0.152, "unit": "nM"}]}]}
